Consider 1 molecule from ChEMBL document CHEMBL4342498, “Design and Discovery of an Orally Efficacious Spiroindolinone-Based Tankyrase Inhibitor for the Treatment of Colon Cancer” (J Med Chem, 2020).

Broadly, the IC50 is the concentration needed to halve the response being measured. One may read the Tmax as the time at which the peak concentration occurs. What is called bioavailability is dose-corrected exposure relative to a reference, in per cent. As a reminder, the AUC(0-inf) is the area under the concentration-time curve extrapolated to infinity. Low readings indicate low exposure, high ones high exposure. For orientation: Cmax means the peak of the concentration-time curve. In general, half-life refers to the time needed for the level to fall by half in the phase considered. The low end stands for fast loss, the high end for slow loss.

Data set [1] has as its target Poly [ADP-ribose] polymerase 1 (Homo sapiens, UniProt P09874). Briefly: Inhibition of recombinant human PARP1 expressed in Escherichia coli assessed as reduction in auto-PARylation using histone as substrate measured after 45 mins in presence of biotinylated-NAD+ by ELISA. On the technique in general: ELISA stands for enzyme-linked immunosorbent assay.
Data set [2] deals with Poly [ADP-ribose] polymerase 2 (Homo sapiens, UniProt Q9UGN5). The data set is described as follows: Inhibition of human recombinant N-terminal GST-tagged PARP2 (2 to 583 residues) expressed in baculovirus infected Sf9 cells assessed as reduction in auto-PARylation using histone as substrate measured after 45 mins in presence of biotinylated-NAD+ by ELISA.
Data set [3] in a line: Tmax in Sprague-Dawley rat at 3 mg/kg, po. It is filed as ADME, organism-based. The conditions noted are these: in vivo.
A short description of data set [4]: Oral bioavailability in Sprague-Dawley rat at 3 mg/kg. It is filed as ADME, organism-based. As to conditions: in vivo.
For data set [5], the species on record is Homo sapiens.
Data set [6] in a line: AUC (infinity) in ICR mouse at 20 mg/kg, ip. It is filed as ADME, organism-based. The arrangement: dose 20 mg/kg, route intraperitoneal, time infinity. The conditions noted are these: in vivo.
A short description of data set [7]: Cmax in ICR mouse at 20 mg/kg, ip. It is filed as ADME, organism-based. The arrangement: dose 20 mg/kg, route intraperitoneal. The conditions noted are these: in vivo.
Data set [8] can be described thus: Tmax in ICR mouse at 20 mg/kg, ip. It is filed as ADME, organism-based. As to conditions: in vivo.
Data set [9] is described as follows: Cmax in ICR mouse at 20 mg/kg, po. It is filed as ADME, organism-based. The arrangement: dose 20 mg/kg, route oral. As to conditions: in vivo.
A short description of data set [10]: Half life in ICR mouse at 20 mg/kg, po. It is filed as ADME, organism-based. The conditions noted are these: in vivo.
Data set [11] concerns the target Cytochrome P450 3A4 (Homo sapiens, UniProt P08684). The data set is described as follows: Inhibition of CYP3A4 in human liver microsomes using midazolam as substrate preincubated for 5 mins followed by NADPH addition and measured for 10 to 30 mins by LC-MS/MS analysis. It is filed as ADME. (Liver microsomes are vesicles of endoplasmic reticulum, rich in cytochrome P450 enzymes.)

Data set [12] relates to COLO 320DM. The data set is described as follows: Antitumor activity against human COLO320DM cells xenografted in Prkdc-NOD-SCID CB17 mouse assessed as tumor growth inhibition at 10 mg/kg, ip administered twice daily for 5 days followed by 2 days interval for 2 cycles relative to control. As to conditions: read-out: TGI. It is filed as functional. Background: A xenograft is tissue or cells of one species grown in another, often human tumour cells in immunodeficient mice.

The subject of data set [13] is COLO 320DM. The data set is described as follows: Antitumor activity against human COLO320DM cells xenografted in Prkdc-NOD-SCID CB17 mouse assessed as tumor growth inhibition at 20 mg/kg, ip administered twice daily for 5 days followed by 2 days interval for 2 cycles relative to control. It is filed as functional. The conditions noted are these: read-out: TGI.
The test system of data set [14] is COLO 320DM. Briefly: Antitumor activity against human COLO320DM cells xenografted in Prkdc-NOD-SCID CB17 mouse assessed as tumor growth inhibition at 20 mg/kg, po administered twice daily for 5 days followed by 2 days interval for 2 cycles relative to control. It is filed as functional. As to conditions: read-out: TGI.
Data set [15] concerns Mus musculus. Briefly: In vivo inhibition of TNSK/TNSK2-medited WNT/beta-catenin signaling in human COLO320DM cells xenografted Prkdc-NOD-SCID CB17 mouse assessed as upregulation of AXIN2 expression in tumor cytosolic extract at 10 to 20 mg/kg, ip administered twice daily for 5 days followed by 2 days interval for 2 cycles measured 4 hrs post-last dose by Western blot analysis. It is filed as functional, organism-based.

For data set [16], the system named is Mus musculus. Briefly: In vivo inhibition of TNSK/TNSK2-medited WNT/beta-catenin signaling in human COLO320DM cells xenografted Prkdc-NOD-SCID CB17 mouse assessed as reduction in active-beta catenin expression in tumor nuclear extract at 10 to 20 mg/kg, ip administered twice daily for 5 days followed by 2 days interval for 2 cycles measured 4 hrs post-last dose by Western blot analysis. It is filed as functional, organism-based.

Data set [17] is described as follows: Plasma concentration in ICR mouse at 20 mg/kg, po measured after 4 hrs. It is filed as ADME, organism-based.
A short description of data set [18]: Toxicity in human COLO320DM cells xenografted Prkdc-NOD-SCID CB17 mouse assessed as behavioral changes at 50 mg/kg, ip administered twice daily for 5 days followed by 2 days interval for 2 cycles. As to conditions: in vivo.
Data set [19] can be described thus: Toxicity in human COLO320DM cells xenografted Prkdc-NOD-SCID CB17 mouse assessed as reduction in appetite at 50 mg/kg, ip administered twice daily for 5 days followed by 2 days interval for 2 cycles. As to conditions: in vivo.

The source made the active and inactive calls.

Sequence of Poly [ADP-ribose] polymerase 1 (P09874 whole entry, the tested form may be a part): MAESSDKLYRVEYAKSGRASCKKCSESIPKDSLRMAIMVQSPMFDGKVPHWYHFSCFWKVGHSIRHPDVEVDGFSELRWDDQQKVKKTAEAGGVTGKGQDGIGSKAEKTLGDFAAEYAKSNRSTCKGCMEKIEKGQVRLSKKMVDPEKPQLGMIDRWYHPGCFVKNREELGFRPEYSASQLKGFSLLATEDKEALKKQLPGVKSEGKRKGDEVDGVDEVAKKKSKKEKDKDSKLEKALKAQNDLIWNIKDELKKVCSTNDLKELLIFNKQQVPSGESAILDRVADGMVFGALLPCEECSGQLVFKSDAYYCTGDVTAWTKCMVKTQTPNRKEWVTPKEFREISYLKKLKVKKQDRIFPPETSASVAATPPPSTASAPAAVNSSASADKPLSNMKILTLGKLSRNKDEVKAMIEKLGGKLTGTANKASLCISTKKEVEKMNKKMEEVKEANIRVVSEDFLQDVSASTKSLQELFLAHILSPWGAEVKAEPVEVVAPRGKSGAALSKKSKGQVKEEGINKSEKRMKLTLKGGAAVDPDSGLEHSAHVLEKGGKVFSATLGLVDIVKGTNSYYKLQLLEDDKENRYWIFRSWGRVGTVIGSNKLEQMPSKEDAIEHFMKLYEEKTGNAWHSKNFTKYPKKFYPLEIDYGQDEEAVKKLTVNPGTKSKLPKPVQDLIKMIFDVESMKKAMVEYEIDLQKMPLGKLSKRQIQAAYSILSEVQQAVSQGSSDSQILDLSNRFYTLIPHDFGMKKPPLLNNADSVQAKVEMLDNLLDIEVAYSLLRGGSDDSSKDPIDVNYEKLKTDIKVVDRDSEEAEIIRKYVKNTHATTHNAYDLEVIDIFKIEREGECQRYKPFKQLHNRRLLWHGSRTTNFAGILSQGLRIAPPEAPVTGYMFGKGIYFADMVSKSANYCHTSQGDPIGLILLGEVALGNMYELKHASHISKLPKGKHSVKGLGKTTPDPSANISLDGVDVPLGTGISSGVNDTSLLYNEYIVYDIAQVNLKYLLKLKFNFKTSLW
Sequence of Cytochrome P450 3A4 (P08684 whole entry): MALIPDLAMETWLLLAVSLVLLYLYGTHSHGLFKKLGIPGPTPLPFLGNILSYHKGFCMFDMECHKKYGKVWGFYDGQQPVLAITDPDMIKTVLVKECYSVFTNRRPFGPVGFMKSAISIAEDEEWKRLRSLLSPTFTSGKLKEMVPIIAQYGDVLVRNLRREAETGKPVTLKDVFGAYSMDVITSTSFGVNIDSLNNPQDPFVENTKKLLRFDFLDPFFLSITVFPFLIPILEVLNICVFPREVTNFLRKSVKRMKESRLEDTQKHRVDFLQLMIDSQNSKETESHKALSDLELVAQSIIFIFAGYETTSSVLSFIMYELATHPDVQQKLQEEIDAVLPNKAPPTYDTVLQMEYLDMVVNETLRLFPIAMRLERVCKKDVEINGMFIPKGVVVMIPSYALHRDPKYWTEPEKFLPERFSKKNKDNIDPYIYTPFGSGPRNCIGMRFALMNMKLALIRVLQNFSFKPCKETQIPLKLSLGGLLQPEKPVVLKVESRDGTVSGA
Sequence of Poly [ADP-ribose] polymerase 2 (Q9UGN5 whole entry, the tested form may be a part): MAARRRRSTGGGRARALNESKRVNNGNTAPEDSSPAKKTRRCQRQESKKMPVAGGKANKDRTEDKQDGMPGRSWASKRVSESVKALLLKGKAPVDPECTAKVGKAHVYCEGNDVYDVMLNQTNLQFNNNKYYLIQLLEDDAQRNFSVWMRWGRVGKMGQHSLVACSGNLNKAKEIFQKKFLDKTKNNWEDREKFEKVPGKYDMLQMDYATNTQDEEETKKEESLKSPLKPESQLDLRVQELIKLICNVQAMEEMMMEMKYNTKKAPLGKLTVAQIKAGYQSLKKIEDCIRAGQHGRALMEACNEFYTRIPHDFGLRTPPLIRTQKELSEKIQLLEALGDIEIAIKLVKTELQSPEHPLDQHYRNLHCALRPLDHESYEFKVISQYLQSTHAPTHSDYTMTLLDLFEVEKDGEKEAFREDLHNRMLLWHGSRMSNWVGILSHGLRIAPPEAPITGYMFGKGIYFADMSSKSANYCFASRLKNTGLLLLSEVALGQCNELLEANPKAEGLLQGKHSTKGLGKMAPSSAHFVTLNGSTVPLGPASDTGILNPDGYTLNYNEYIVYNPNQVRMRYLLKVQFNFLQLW

Turning to `C[C@@H]1CN(c2cc(F)c3c(c2)N(C)C(=O)C32CCN(c3nc4c(c(=O)[nH]3)CCCN4C)CC2)C[C@H](C)O1`, the IC50 in [1] was 18.2 µM; in data set [2], 1.24 µM; in [11] it was greater than 10 µM. Also, the figures for the Tmax in [3] and in [8] were 0.33 h and 1 h, respectively. Moreover, the bioavailability in [4] amounted to 100%. Further, the Ratio IC50 in [5] amounted to 223. Further, in [6], the AUC(0-inf) was determined as 266 µM·h. The Cmax amounted to 75.6 µM in data set [7] and 76.6 µM in data set [9]. In data set [10], this molecule had a half-life of 1.7 h. Moreover, the inhibition in vivo at 10 mg/kg in [12] was found to be 68.8%. Moreover, the inhibition in vivo at 20 mg/kg is 71.1% in [13] and 52% in data set [14]. Moreover, the inhibition result in [15] was “Active”. In addition, the inhibition entry in [16] is “inactive”. This molecule also had a concentration at 4 h in data set [17] of 26.9 µM. Further, the Activity entry in [18] and in data set [19] was “Toxic” each time.
